# Reference: paper PMC6413183, “Regulatory Aspects of the Vacuolar CAT2 Arginine Transporter of S. lycopersicum: Role of Osmotic Pressure and Cations” (International Journal of Molecular Sciences, 2019)
# Read-outs that look alike come from different tables or passages of the source.
# Columns and labels:
# SlCAT2 [1] = assay: [3H]Arg uptake in proteoliposomes reconstituted with recombinant SlCAT2; type: biochemical, S. lycopersicum; settings: for effect of intraliposomal cations on [3H]Arg uptake: cation in internal compartment at about vacuolar concentration, K+ and Na+ versus no osmolytes, extent equal to isoosmolar sucrose (osmotic effect); for inhibition of [3H]Arg uptake by external monovalent cations / inhibition of [3H]Arg uptake by external divalent cations: extraliposomal cation at about cytosolic concentration; for inhibition of [3H]Arg uptake by external monovalent cations: with respect to 40 mM sucrose used as control of osmolality; for effect of external K+ salts on [3H]Arg uptake: salt in extraliposomal compartment, KCl compared to K-gluconate; for inhibition of [3H]Arg uptake by external divalent cations: with respect to sucrose (1.2 mM) used as control of osmolality
# Procedure: The desalted SlCAT2 was reconstituted by removing the detergent from mixed micelles containing detergent, protein, and phospholipids by incubation with Amberlite XAD-4 in a batch-wise procedure, as previously described. The composition of the initial mixture used for reconstitution (except when differently indicated) was 400 µL of the purified protein (6 µg protein in 0.1% DDM), 80 µL of 10 % TX-100, 120 µL of 10% egg yolk phospholipids in the form of sonicated liposomes prepared as previously described, 15 mM ATP, and 10 mM Tris Hepes pH 7.5 (except where differently indicated) in a final volume of 700 µL. After vortexing, this mixture was incubated with 0.5 g Amberlite XAD-4 under rotatory stirring (1200 rpm) at 23 °C for 40 min in a batchwise procedure as previously pointed out.
# Five-hundred-and-fifty microliters of proteoliposomes were passed through a Sephadex G-75 column (0.7 cm diameter × 15 cm height) preequilibrated with 10 mM Tris Hepes pH 7.5. From these columns, 550 µL of proteoliposomes were collected and divided into aliquots (samples) of 100 µL. Transport was started by adding 100 µM of [^3H]Arg to the proteoliposome samples. The pH gradient experiments were performed reconstituting protein in liposome with 10 mM Tris Hepes pH 5.5. After incubation with Amberlite XAD 4 resin, 550 µL of proteoliposomes were passed through a Sephadex G-75 column preequilibrated with 0.5 mM Tris Hepes pH 5.5.
# The changes in external/internal osmolality were performed by adding in the extraliposomal/intraliposomal compartment appropriate concentrations of sucrose as indicated in the figure legend.
# Transport reaction was stopped by adding 5 mM Pyridoxal Phosphate (PLP); according to the stop inhibitor method, the same inhibitor was added at time zero to control samples (blank). The initial rate was measured in 10 min, i.e., in the linear range of time courses as previously described. The PLP insensitive radioactivity associated with the control samples (blank) was less than 30% with respect to the PLP-sensitive arginine transport.
# The experimental values were corrected by subtracting the respective controls. Specific activity was calculated and expressed as nmol/mg at a given time of measurement or as nmol/(mg × min) in the case of initial rate measurement. For calculation of initial rate, transport was measured in 10 min, i.e., within the initial linear part of the uptake. Grafit 5.0.13 software (Erithacus Software, West Sussex, UK) was used to derive IC50 values in inhibition assays and to measure transport rate by first-order rate equation and by a single exponential decay with offset.
# SlCAT2 [2] = assay: [3H]Arg efflux from preloaded proteoliposomes reconstituted with SlCAT2; type: biochemical, S. lycopersicum; settings: 0.45 mM Mg2+ in the extraliposomal compartment; proteoliposomes preloaded with 100 µM [3H]Arg
# Procedure: Figure 9 Efflux from proteoliposomes reconstituted with SlCAT2. SlCAT2 was purified and reconstituted in proteoliposomes as described in Section 4.4. Arginine efflux was measured at the indicated time, as described in Section 4.5. Internal residual radioactivity was measured as percent with respect to control (time 0), in the absence (open circle) or in the presence (closed circle) of 0.45 mM Mg^2+ in the extraliposomal compartment. Data are plotted using the single exponential equation with offset as described in Section 4.5. Results are the means ± SD from three experiments.
# For efflux measurements, proteoliposomes containing 15 mM ATP were preloaded by incubation with 100 µM [^3H]Arg (1 µCi/mL) for 90 min [64]. In both uptake and efflux, transport was stopped by passing 100 µL of each sample through a Sephadex G-75 column (0.6 cm diameter × 8 cm height) in order to separate the external from the internal radioactivity. Samples were eluted with 1 mL 50 mM NaCl and collected in 4 mL of scintillation mixture, vortexed and counted.
# The experimental values were corrected by subtracting the respective controls. Specific activity was calculated and expressed as nmol/mg at a given time of measurement or as nmol/(mg × min) in the case of initial rate measurement. For calculation of initial rate, transport was measured in 10 min, i.e., within the initial linear part of the uptake. […]
# [3] = cation in extraliposomal compartment (NaCl, K-gluconate, NH4Cl, MgCl2), 100 μM [3H]Arg, 20 min, proteoliposomes containing 200 mM sucrose and 15 mM ATP, pH 7.5, read-out: IC50 for inhibition of [3H]Arg uptake by external cations
smiles,measurement,setting,value
"CC(C)CCC[C@@H](C)[C@H]1CC[C@H]2[C@@H]3CC=C4C[C@@H](OC(=O)CCC(=O)O)CC[C@]4(C)[C@H]3CC[C@]12C [CHS, Cholesteryl hemisuccinate, reference compound]",stimulation of [3H]Arg uptake by CHS in the proteoliposomal membrane,"SlCAT2 [1]; 1 mg of CHS in 1 mL proteoliposomes, corresponding to 10% of total lipid composition, 20 min, pH 7.5",up to 30%
[K+] [K^+],IC50,SlCAT2 [1]; [3],11.3 ± 1.2 mM
same,effect of intraliposomal cations on [3H]Arg uptake,"SlCAT2 [1]; 15 mM ATP, pH 7.5, 20 min",activation
same,inhibition of [3H]Arg uptake by external monovalent cations,"SlCAT2 [1]; 20 min, pH 7.5",~ 40%
O=C([O-])[C@H](O)[C@@H](O)[C@H](O)[C@H](O)CO.[K+] [K-gluconate],effect of external K+ salts on [3H]Arg uptake,"SlCAT2 [1]; 20 min, pH 7.5",no difference between the two K^+ salts
Cl.N [NH4^+],IC50,SlCAT2 [1]; [3],5.7 ± 1.49 mM
same,effect of intraliposomal cations on [3H]Arg uptake,"SlCAT2 [1]; 15 mM ATP, pH 7.5, 20 min",did not exert any significant effect
same,inhibition of [3H]Arg uptake by external monovalent cations,"SlCAT2 [1]; 20 min, pH 7.5",~ 40%
[Cl-].[Cl-].[Mg+2] [Mg^2+],effect of external Mg2+ on [3H]Arg efflux,SlCAT2 [2],"no, or only a slight, effect"
same,inhibition of [3H]Arg uptake by intraliposomal Mg2+ in the absence of internal ATP,"SlCAT2 [1]; Mg2+ in internal compartment, 200 mM sucrose, no intraliposomal ATP, 20 min",virtually disappeared
same,IC50,"SlCAT2 [1]; Mg2+ in internal compartment, with 200 mM sucrose and 15 mM intraliposomal ATP, pH 7.5, 20 min, read-out: IC50 for inhibition of [3H]Arg uptake by intraliposomal Mg2+",23 ± 9.9 mM
same,IC50,SlCAT2 [1]; [3],0.42 ± 0.18 mM
same,effect of intraliposomal cations on [3H]Arg uptake,"SlCAT2 [1]; 15 mM ATP, pH 7.5, 20 min",strong inhibitory effect
same,inhibition of [3H]Arg uptake by external divalent cations,"SlCAT2 [1]; 20 min, pH 7.5",33%
[Cl-].[Na+] [Na^+],IC50,SlCAT2 [1]; [3],10.9 ± 0.8 mM
same,effect of intraliposomal cations on [3H]Arg uptake,"SlCAT2 [1]; 15 mM ATP, pH 7.5, 20 min",activation
same,inhibition of [3H]Arg uptake by external monovalent cations,"SlCAT2 [1]; 20 min, pH 7.5",~ 40%
Nc1ncnc2c1ncn2[C@@H]1O[C@H](COP(=O)(O)OP(=O)([O-])OP(=O)([O-])O)[C@@H](O)[C@H]1O.[Na+].[Na+] [ATP],effect of extraliposomal ATP on [3H]Arg uptake,"SlCAT2 [1]; ATP (Na+)2 salt added externally, partially due to Na+ and osmolality, 200 mM sucrose and 15 mM ATP inside, pH 7.5, 20 min",inhibited
[Cl-].[K+] [KCl],effect of external K+ salts on [3H]Arg uptake,"SlCAT2 [1]; 20 min, pH 7.5",inhibited
[Ca+2].[Cl-].[Cl-] [Ca^2+],effect of intraliposomal cations on [3H]Arg uptake,"SlCAT2 [1]; 15 mM ATP, pH 7.5, 20 min",did not exert any significant effect
same,inhibition of [3H]Arg uptake by external divalent cations,"SlCAT2 [1]; 20 min, pH 7.5",did not exert a significant effect
OC[C@H]1O[C@@](CO)(O[C@H]2O[C@H](CO)[C@@H](O)[C@H](O)[C@H]2O)[C@@H](O)[C@@H]1O [sucrose],effect of 1.2 mM external sucrose on transport activity,"SlCAT2 [1]; 1.2 mM sucrose external, with respect to control without sucrose",no difference of activity
same,effect of 40 mM external sucrose on transport activity,"SlCAT2 [1]; 40 mM sucrose external, with respect to the condition without sucrose",caused a reduction of transport activity
same,[3H]Arg uptake as percent of the control with external sucrose,"SlCAT2 [1]; 50 mM sucrose in external compartment, 200 mM sucrose and 15 mM ATP inside, pH 7.5, 10 min",about 45%
same,transport rate of [3H]Arg uptake with external sucrose,"SlCAT2 [1]; 50 mM sucrose in external compartment, control without external sucrose 0.93 ± 0.2, 10 min, pH 7.5",0.51 ± 0.18 nmol/mg/min
same,change of [3H]Arg uptake with intraliposomal sucrose,"SlCAT2 [1]; intraliposomal osmolality 50 to 175 mOsmol, plateau up to 225 mOsmol, 15 mM ATP, pH 7.5, 10 min",increased approximately three times
